The values below come from ChEMBL document CHEMBL5728348, “1 H-pyrazol-1-yl-thiazoles as inhibitors of lactate dehydrogenase and methods of use thereof” (2021).

The structures appear in SMILES notation. pIC50: −log10 of the molar value.

Broadly, the IC50 is the concentration that gives 50% inhibition. Read a high IC50 as weaker potency in that assay. The term pIC50 denotes the negative decadic logarithm of the IC50, by convention in mol/L. Lower therefore signals a large IC50.

The nature of this experiment: Biochemical Assay: Test compounds were placed in a Greiner Bio-One (Monroe, N.C.) 1536-well black solid bottom assay plate. 200 millimolar (mM) Tris HCl, pH 7.4, 100 micromolar (μM) EDTA and 0.01% TWEEN-20, final concentration, was used as the assay buffer. The LDHA reagent was 2 nanomolar (nM) Human LDHA (Meridian Life Science, Inc., Memphis, Tenn.), final concentration, in assay buffer. The substrate reagent was 0.06 mM NADH and 0.2 mM sodium pyruvate, final concentration, in assay buffer. The resazurin/diaphorase coupling reagent was 0.037 mM resazurin and 0.133 milligrams per milliliter (mg/mL) diaphorase, final concentration, in assay buffer. The inhibition of LDHA activity was measured by fluorescence emission. A general note: Resazurin is reduced to fluorescent resorufin, in cell work by metabolically active cells.
Regarding `N[S+](=O)([O-])c1ccc(Cc2c(-c3cccc(-c4ccc(C(F)(F)C(F)(F)F)cc4)c3)nn(-c3nc(C(=O)O)cs3)c2CCC2CC2)cc1F`, the IC50 result is “in the range around 550 nM”.

With `Cc1ccc(C#Cc2cccc(-c3nn(-c4nc(C(=O)NC#N)cs4)c(CC4CC4)c3Cc3ccc([SH+](N)[O-])c(F)c3)c2)s1` (centres undefined), the IC50 result is “in the range around 29000 nM”.

`N[SH+]([O-])c1ccc(Cc2c(-c3cccc(-c4cc(F)cc(F)c4)c3)nn(-c3nc(C(=O)O)cs3)c2CC2CC2)cc1F` (centres undefined): the pIC50 is more than 7.00.

For the molecule `NS(=O)(=O)c1ccc(Cc2c(-c3cccc(-c4nc5ccccc5[nH]4)c3)nn(-c3nc(C(=O)O)cs3)c2CC2CC2)cc1F`, the pIC50 was more than 7.00.

For `COc1ccc(-c2cccc(-c3nn(-c4nc(C(=O)O)cs4)c(CC4CC4)c3Cc3ccc([SH+](N)[O-])c(F)c3)c2)cc1Cl` (centres undefined), the IC50 result is “in the range around 550 nM”.

With `CC(C)c1ccc(-c2cccc(-c3nn(-c4nc(C(=O)O)cs4)c(CCC4CC4)c3Cc3ccc([S+](N)(=O)[O-])c(F)c3)c2)cc1`, the IC50 entry is “in the range around 550 nM”.

For `N[S+](=O)([O-])c1ccc(Cc2c(-c3cccc(-c4ccc5c(c4)CCCC5)c3)nn(-c3nc(C(=O)O)cs3)c2CC2CC2)cc1F`, the IC50 entry was “in the range around 550 nM”.

In turn, `Cc1ccc(C#Cc2cc(-c3nn(-c4nc(C(=O)O)cs4)c(CC4CC4)c3Cc3ccc([SH+](N)[O-])c(F)c3)ccc2F)s1` (centres undefined) showed a pIC50 of more than 7.00.

Regarding `CC(C)Cc1ccc(-c2cccc(-c3nn(-c4nc(C(=O)O)cs4)c(CCC4CC4)c3Cc3ccc([S+](N)(=O)[O-])c(F)c3)c2)cc1`, the IC50 entry is “in the range around 550 nM”.

Turning to `CN(C)c1ccc(-c2cccc(-c3nn(-c4nc(C(=O)O)cs4)c(CC4CC4)c3Cc3ccc([SH+](N)[O-])c(F)c3)c2)cc1` (centres undefined), the pIC50 is more than 7.00.

`Cc1ccc(C#Cc2cccc(-c3nn(-c4nc(CO)cs4)c(CC4CC4)c3Cc3ccc([SH+](N)[O-])c(F)c3)c2)s1` (centres undefined): the pIC50 was less than 4.24.

Consider `N[SH+]([O-])c1ccc(Cc2c(-c3cccc(-c4cccc(Cl)c4)c3)nn(-c3nc(C(=O)O)cs3)c2CC2CC2)cc1F` (centres undefined), for which the pIC50 is more than 7.00.

On to `N#Cc1ccc(-c2cccc(-c3nn(-c4nc(C(=O)O)cs4)c(CC4CC4)c3Cc3ccc([SH+](N)[O-])c(F)c3)c2)cc1` (centres undefined), for which the pIC50 is more than 7.00.

Molecule `CC(C)c1cccc(-c2cccc(-c3nn(-c4nc(C(=O)O)cs4)c(CC4CC4)c3Cc3ccc([SH+](N)[O-])c(F)c3)c2)c1` (centres undefined) gave a pIC50 of more than 7.00.
